# Measured values: publication PMC6009938, “The use of dimethylsulfoxide as a solvent in enzyme inhibition studies: the case of aldose reductase” (Journal of Enzyme Inhibition and Medicinal Chemistry, 2017)
# Assays:
# Type in all cases: biochemical
# [1] = molecular target: T1, human recombinant AR (hAR) (Homo sapiens, UniProt P15121); experiment: Aldose reductase assay, L-idose reduction (NADPH oxidation at 340 nm); conditions: for Inhibition model / Ki / Ki′: substrate L-idose
# T1 construct: made in house
# Experimental: (§1) One unit of enzyme activity is the amount that catalyses the conversion of 1 µmol of substrate/min in the above assay conditions. These assay conditions were also adopted to assess the effectiveness of inhibitors when L-idose, trans-4-hydroxy-2,3-nonenal (HNE), or 3-glutathionyl-4-hydroxynonenal (GSHNE) was used as a substrate instead of GAL.
# (§2) The human recombinant AR (hAR) was expressed and purified as previously described. […] The purified enzyme was stored at −80 °C in a 10 mM sodium phosphate buffer pH 7.0 containing 2 mM DTT and 30% (w/v) glycerol. Before use, the enzyme was extensively dialysed against a 10 mM sodium phosphate buffer pH 7.0.
# [2] = molecular target: T1, human recombinant AR (hAR); experiment: Aldose reductase assay, HNE reduction (NADPH oxidation at 340 nm); conditions: for Inhibition model / Ki′: substrate HNE
# Experimental: (§3) The AR activity was determined at 37 °C as previously described, following the decrease in absorbance at 340 nm due to NADPH oxidation (ε 340 = 6.22 mM^−1·cm^−1) through a Biochrom Libra S60 spectrophotometer (Biochrom, Cambridge, United Kingdom). The standard assay mixture contained a 0.25 M sodium phosphate buffer pH 6.8, 0.18 mM NADPH, 0.4 M ammonium sulphate, 0.5 mM EDTA and 4.7 mM GAL. One unit of enzyme activity is the amount that catalyses the conversion of 1 µmol of substrate/min in the above assay conditions. These assay conditions were also adopted to assess the effectiveness of inhibitors when L-idose, trans-4-hydroxy-2,3-nonenal (HNE), or 3-glutathionyl-4-hydroxynonenal (GSHNE) was used as a substrate instead of GAL.
# as §2
# The protein concentration was determined according to Bradford[35], using BSA as a standard protein. HNE was prepared as previously described. GSHNE was prepared as previously described[37] by incubation of GSH and HNE, monitoring the time course of GSH consumption. The residual GSH was determined as previously described.
# [3] = molecular target: T1, human recombinant AR (hAR); experiment: Aldose reductase assay, GSHNE reduction; conditions: up to 100 mM in the assay mixture; different substrate concentrations
# Experimental: as §3
# The human recombinant AR (hAR) was expressed and purified as previously described. […] The specific activity of purified hAR was 5.3 U/mg. The purified enzyme was stored at −80 °C in a 10 mM sodium phosphate buffer pH 7.0 containing 2 mM DTT and 30% (w/v) glycerol. Before use, the enzyme was extensively dialysed against a 10 mM sodium phosphate buffer pH 7.0.
# The protein concentration was determined according to Bradford[35], using BSA as a standard protein. HNE was prepared as previously described. […] The residual GSH was determined as previously described.
# [4] = molecular target: T1, human recombinant AR (hAR); experiment: Aldose reductase assay, GAL reduction
# Experimental: as §1, §2
# [5] = DMSO 40 mM, apparent, ESI complex
# [6] = DMSO 100 mM, apparent, ESI complex
# [7] = DMSO 200 mM, apparent, ESI complex
# [8] = No DMSO, dissociation constant of ESI complex
Inhibition model [1],Inhibition model [2],effect on the reduction of GAL catalysed by AR [4],"Ki′ [1, 5]","Ki′ [1, 6]","Ki′ [1, 7]","Ki′ [1, 8]","Ki′ [2, 5]","Ki′ [2, 6]","Ki′ [2, 7]","Ki′ [2, 8]",Inhibition model ([1]; listed as rutin),Inhibition model ([2]; listed as rutin),SMILES,effect on enzyme activity with GSHNE as substrate [3],"Ki ([1]; DMSO 40 mM, apparent)","Ki ([1]; DMSO 100 mM, apparent)","Ki ([1]; DMSO 200 mM, apparent)",Ki ([1]; No DMSO),"inhibition of AR activity ([1]; 0.7% (v/v) (approximately 0.17 M), L-idose 0.4–4 mM)","inhibition of AR activity ([2]; 0.7% (v/v) (approximately 0.17 M), HNE 40–110 µM)"
competitive inhibition,mixed type of inhibition,no effect,–,–,–,–,–,–,–,–,–,–,"C[S+](C)[O-] [DMSO, dimethyl sulfoxide]",no effect of interference on the enzyme activity,–,–,–,–,–,–
Mixed,Mixed,–,62.9 ± 2.3 µM,50.3 ± 4.8 µM,60.9 ± 2.1 µM,52.5 ± 3.8 µM,64.7 ± 1.4 µM,73.4 ± 7.5 µM,99.5 ± 7.3 µM,56.5 ± 4.5 µM,–,–,"O=C(CCc1ccc(O)cc1)c1c(O)cc(O)cc1O [Phloretin, phloretin]",–,–,–,–,–,–,–
Mixed,Uncompetitive,–,7.6 ± 1.2 µM,11.7 ± 0.5 µM,12.7 ± 2.0 µM,9.3 ± 1.1 µM,10.5 ± 2.0 µM,12.8 ± 1.9 µM,16.5 ± 1.9 µM,9.2 ± 0.9 µM,mixed inhibitors,uncompetitive inhibitors,"C[C@@H]1O[C@@H](OC[C@H]2O[C@@H](Oc3c(-c4ccc(O)c(O)c4)oc4cc(O)cc(O)c4c3=O)[C@H](O)[C@@H](O)[C@@H]2O)[C@H](O)[C@H](O)[C@H]1O [Rutin, rutin]",–,20.3 ± 1.1 µM,24.8 ± 3.8 µM,45.6 ± 5.5 µM,17.8 ± 3 µM,–,–

# The remaining lines, values behind:
SMILES,Inhibition model [1],Inhibition model [2],effect on the reduction of GAL catalysed by AR [4],"Ki′ [1, 5]","Ki′ [1, 6]","Ki′ [1, 7]","Ki′ [1, 8]","Ki′ [2, 5]","Ki′ [2, 6]","Ki′ [2, 7]","Ki′ [2, 8]",Inhibition model ([1]; listed as rutin),Inhibition model ([2]; listed as rutin),effect on enzyme activity with GSHNE as substrate [3],"Ki ([1]; DMSO 40 mM, apparent)","Ki ([1]; DMSO 100 mM, apparent)","Ki ([1]; DMSO 200 mM, apparent)",Ki ([1]; No DMSO),"inhibition of AR activity ([1]; 0.7% (v/v) (approximately 0.17 M), L-idose 0.4–4 mM)","inhibition of AR activity ([2]; 0.7% (v/v) (approximately 0.17 M), HNE 40–110 µM)"
"COc1ccc(CCC(=O)c2c(O)cc(O[C@@H]3O[C@H](CO)[C@@H](O)[C@H](O)[C@H]3O[C@@H]3O[C@@H](C)[C@H](O)[C@@H](O)[C@H]3O)cc2O)cc1O [NHDC, neohesperidin dihydrochalcone]",mixed inhibitors,uncompetitive inhibitors,–,286 ± 53 µM,230 ± 35 µM,283 ± 2 µM,292 ± 17 µM,134 ± 11 µM,150 ± 22 µM,199 ± 6 µM,122 ± 19 µM,–,–,–,114 ± 15 µM,125 ± 16 µM,194 ± 17 µM,93 ± 17 µM,–,–
CO [methanol],–,–,–,–,–,–,–,–,–,–,–,–,–,–,–,–,–,–,less than 5%,less than 5%
